Results as given in PubChem BioAssay AID330 (DTP/NCI, 2004).
Where “and” joins values, the source holds several entries; their conditions need not be identical. Identical values can stand only once. Inconclusive results and toxic doses are left out.

Tested on: P388 leukemia ip, CD2F1 mice, survival T/C
Experiment: NCI In Vivo Anticancer Drug Screen. Data for tumor model P388 Leukemia (intraperitoneal) in CD2F1 (CDF1) mice
Conditions: endpoint: median survival time, higher = longer survival
Summary of the method: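 Mice carrying the transplanted tumor received test compound or vehicle. Survival was recorded in each group, and the value is the treated-group measurement divided by that of the vehicle-treated control group.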

[1] = dose: 60.0 mg/kg/injection, schedule: Q01DX005 (ip), vehicle: saline with Tween-80
[2] = dose: 120.0 mg/kg/injection, schedule: Q01DX005 (ip), vehicle: saline with Tween-80
[3] = dose: 50.0 mg/kg/injection, schedule: Q01DX005 (ip), vehicle: Klucel (hydroxypropylcellulose) (HPC)
[4] = dose: 100.0 mg/kg/injection, schedule: Q01DX005 (ip), vehicle: Klucel (hydroxypropylcellulose) (HPC)
[5] = dose: 200.0 mg/kg/injection, schedule: Q01DX005 (ip), vehicle: Klucel (hydroxypropylcellulose) (HPC)
[6] = dose: 50.0 mg/kg/injection, schedule: Q01DX009 (ip), vehicle: saline
[7] = dose: 100.0 mg/kg/injection, schedule: Q01DX009 (ip), vehicle: saline
[8] = dose: 25.0 mg/kg/injection, schedule: Q01DX009 (ip), vehicle: Klucel (hydroxypropylcellulose) (HPC)
[9] = dose: 50.0 mg/kg/injection, schedule: Q01DX009 (ip), vehicle: Klucel (hydroxypropylcellulose) (HPC)
[10] = dose: 100.0 mg/kg/injection, schedule: Q01DX009 (ip), vehicle: Klucel (hydroxypropylcellulose) (HPC)
[11] = dose: 200.0 mg/kg/injection, schedule: Q01DX009 (ip), vehicle: Klucel (hydroxypropylcellulose) (HPC)
[12] = dose: 50.0 mg/kg/injection, schedule: Q01DX005 (ip), vehicle: saline with Tween-80
[13] = dose: 100.0 mg/kg/injection, schedule: Q01DX005 (ip), vehicle: saline with Tween-80
[14] = dose: 200.0 mg/kg/injection, schedule: Q01DX005 (ip), vehicle: saline with Tween-80
[15] = dose: 12.5 mg/kg/injection, schedule: Q01DX009 (ip), vehicle: saline with Tween-80
[16] = dose: 25.0 mg/kg/injection, schedule: Q01DX009 (ip), vehicle: saline with Tween-80
[17] = dose: 6.25 mg/kg/injection, schedule: Q01DX009 (ip), vehicle: saline with Tween-80

COC(=O)c1cc(OC)nc(OC)n1
T/C (dose: 12.5 mg/kg/injection, schedule: Q01DX009 (ip), vehicle: distilled water + Tween-80): 108 % of control | T/C (dose: 25.0 mg/kg/injection, schedule: Q01DX009 (ip), vehicle: distilled water + Tween-80): 96 % of control | T/C (dose: 50.0 mg/kg/injection, schedule: Q01DX009 (ip), vehicle: distilled water + Tween-80): 105 % of control | T/C (dose: 100.0 mg/kg/injection, schedule: Q01DX009 (ip), vehicle: distilled water + Tween-80): 99 % of control

O=C(CCCN1CCC(C(=O)c2ccc(Cl)cc2)CC1)c1ccc(F)cc1
T/C (dose: 3.0 mg/kg/injection, schedule: Q01DX009 (ip), vehicle: Klucel (hydroxypropylcellulose) (HPC)): 99 % of control | T/C (dose: 6.0 mg/kg/injection, schedule: Q01DX009 (ip), vehicle: Klucel (hydroxypropylcellulose) (HPC)): 97 % of control | T/C (dose: 12.0 mg/kg/injection, schedule: Q01DX009 (ip), vehicle: Klucel (hydroxypropylcellulose) (HPC)): 108 % of control

C=C(CC(O)c1ccccc1)C(=O)Nc1ccccc1OC (stereo not given)
T/C (dose: 50.0 mg/kg/injection, schedule: Q01DX005 (ip), vehicle: saline): 98 % of control | T/C (dose: 100.0 mg/kg/injection, schedule: Q01DX005 (ip), vehicle: saline): 103 % of control | T/C (dose: 200.0 mg/kg/injection, schedule: Q01DX005 (ip), vehicle: saline): 100 % of control

CSCC(NP1(=O)SC(NN=C2CCCCC2)=NC1(C)C)C(=O)O (stereo not given)
T/C [1]: 100 % of control | T/C [2]: 100 % of control | T/C (dose: 240.0 mg/kg/injection, schedule: Q01DX005 (ip), vehicle: saline with Tween-80): 100 % of control

COc1ccc2c(c1)OC(C)(C)C(c1ccccc1)=C2c1ccc(OCCBr)c([N+](=O)[O-])c1
T/C [3]: 107 % of control | T/C [4]: 98 % of control | T/C [5]: 101 % of control

Cc1ccc2sc3ccccc3c(=O)c2c1
T/C [6]: 104 % of control | T/C [7]: 113 % of control | T/C (dose: 200.0 mg/kg/injection, schedule: Q01DX009 (ip), vehicle: saline): 87 % of control

COC(F)C(C)=O (stereo not given)
T/C (dose: 100.0 mg/kg/injection, schedule: Q01DX001 (ip), vehicle: other): 103 % of control | T/C (dose: 200.0 mg/kg/injection, schedule: Q01DX001 (ip), vehicle: other): 101 % of control | T/C (dose: 400.0 mg/kg/injection, schedule: Q01DX001 (ip), vehicle: other): 112 % of control

COC1/C=C/OC2(C)Oc3c(C)c(O)c4c(O)c(c5c(nc(-c6ccco6)n5-c5ccccc5)c4c3C2=O)NC(=O)/C(C)=C\C=C\C(C)C(O)C(C)C(O)C(C)C(OC(C)=O)C1C (stereo not given)
T/C [8]: 89 % of control | T/C [9]: 95 % of control | T/C [10]: 95 % of control | T/C [11]: 93 % of control

Nc1nnc(-c2cc(=O)c3cc(Cl)ccc3o2)s1
T/C [12]: 97 % of control | T/C [13]: 100 % of control | T/C [14]: 93 % of control

COP(=S)(OC)SCSc1ccc(Cl)cc1
T/C [15]: 89 % of control | T/C [16]: 91 % of control

CSc1ccc(NC(=O)ON2C(=O)c3ccccc3C2=O)cc1
T/C [17]: 119 % of control | T/C [15]: 110 % of control | T/C [16]: 112 % of control | T/C (dose: 50.0 mg/kg/injection, schedule: Q01DX009 (ip), vehicle: saline with Tween-80): 119 % of control

CN(C)P1(=O)OCC(C)(C)CN1c1ccccc1 (stereo not given)
T/C (dose: 100.0 mg/kg/injection, schedule: Q04DX002 (ip), vehicle: saline): 96 % of control | T/C (dose: 200.0 mg/kg/injection, schedule: Q04DX002 (ip), vehicle: saline): 95 % of control | T/C (dose: 400.0 mg/kg/injection, schedule: Q04DX002 (ip), vehicle: saline): 100 % of control

CN(C)CCCNc1nnc(NCCCN(C)C)c2cc3ccccc3cc12
T/C (dose: 7.5 mg/kg/injection, schedule: Q01DX005 (ip), vehicle: saline): 98 % of control | T/C (dose: 15.0 mg/kg/injection, schedule: Q01DX005 (ip), vehicle: saline): 94 % of control | T/C (dose: 30.0 mg/kg/injection, schedule: Q01DX005 (ip), vehicle: saline): 110 % of control

OC(CNC1CCCCC1)c1ccccc1 (stereo not given)
T/C (dose: 6.25 mg/kg/injection, schedule: Q01DX009 (ip), vehicle: Klucel (hydroxypropylcellulose) (HPC)): 98 % of control | T/C (dose: 12.5 mg/kg/injection, schedule: Q01DX009 (ip), vehicle: Klucel (hydroxypropylcellulose) (HPC)): 100 % of control | T/C [8]: 95 % of control | T/C [9]: 109 % of control

Cc1ncc([N+](=O)[O-])n1Cc1nncs1
T/C [9]: 108 % of control | T/C [10]: 107 % of control | T/C [11]: 104 % of control

Cc1cc(-c2c(C)[nH]n(-c3nc4ccc(F)cc4s3)c2=O)n(-c2nc3ccc(F)cc3s2)n1
T/C (dose: 15.0 mg/kg/injection, schedule: Q01DX005 (ip), vehicle: saline with Tween-80): 96 % of control | T/C (dose: 30.0 mg/kg/injection, schedule: Q01DX005 (ip), vehicle: saline with Tween-80): 95 % of control | T/C [1]: 100 % of control and 92 % of control

Cc1ccc(/C=C/c2ccc([N+](=O)[O-])cc2)cc1
T/C [3]: 105 % of control and 97 % of control | T/C [4]: 90 % of control and 96 % of control | T/C [5]: 93 % of control | T/C (dose: 400.0 mg/kg/injection, schedule: Q01DX005 (ip), vehicle: Klucel (hydroxypropylcellulose) (HPC)): 102 % of control and 103 % of control

CCOC(=O)c1csc(-c2ccc(COC(=O)c3ccccc3)o2)n1
T/C [12]: 100 % of control | T/C [13]: 96 % of control | T/C [14]: 89 % of control

CN(C)C(=O)c1cc(N2CC2)c([N+](=O)[O-])cc1[N+](=O)[O-]
T/C (dose: 1.56 mg/kg/injection, schedule: Q01DX009 (ip), vehicle: saline with Tween-80): 98 % of control and 117 % of control | T/C (dose: 3.12 mg/kg/injection, schedule: Q01DX009 (ip), vehicle: saline with Tween-80): 115 % of control | T/C [17]: 100 % of control and 101 % of control and 113 % of control | T/C [16]: 110 % of control

C[N+](C)(C)CCCCCCN
T/C [6]: 102 % of control | T/C [7]: 97 % of control

O=c1sc2ncccc2n1-c1ccc([N+](=O)[O-])cn1
T/C (dose: 100.0 mg/kg/injection, schedule: Q04DX003 (ip), vehicle: saline): 103 % of control | T/C (dose: 200.0 mg/kg/injection, schedule: Q04DX003 (ip), vehicle: saline): 86 % of control | T/C (dose: 400.0 mg/kg/injection, schedule: Q04DX003 (ip), vehicle: saline): 89 % of control

CCOc1c(N=Nc2ccccc2Cl)c(-c2ccccc2)nn1C(=S)S
T/C [12]: 105 % of control | T/C [13]: 99 % of control

CC1(CO)CCCC1NCCNC1CCCC1(C)CO (stereo not given)
T/C [1]: 102 % of control | T/C [2]: 105 % of control

N#CSCCC(=O)Nc1ccccc1
T/C (dose: 6.25 mg/kg/injection, schedule: Q01DX005 (ip), vehicle: Klucel (hydroxypropylcellulose) (HPC)): 102 % of control | T/C (dose: 12.5 mg/kg/injection, schedule: Q01DX005 (ip), vehicle: Klucel (hydroxypropylcellulose) (HPC)): 101 % of control | T/C (dose: 25.0 mg/kg/injection, schedule: Q01DX005 (ip), vehicle: Klucel (hydroxypropylcellulose) (HPC)): 104 % of control

CCCCOP(=S)(N1CC1)N1CC1
T/C (dose: 6.25 mg/kg/injection, schedule: Q04DX003 (ip), vehicle: saline with Tween-80): 154 % of control | T/C (dose: 12.5 mg/kg/injection, schedule: Q04DX003 (ip), vehicle: saline with Tween-80): 195 % of control | T/C (dose: 25.0 mg/kg/injection, schedule: Q04DX003 (ip), vehicle: saline with Tween-80): 236 % of control | T/C (dose: 44.0 mg/kg/injection, schedule: Q04DX003 (ip), vehicle: saline with Tween-80): 204 % of control | T/C (dose: 50.0 mg/kg/injection, schedule: Q04DX003 (ip), vehicle: saline with Tween-80): 259 % of control | T/C (dose: 66.0 mg/kg/injection, schedule: Q04DX003 (ip), vehicle: saline with Tween-80): 200 % of control | T/C (dose: 100.0 mg/kg/injection, schedule: Q04DX003 (ip), vehicle: saline with Tween-80): 179 % of control | T/C (dose: 150.0 mg/kg/injection, schedule: Q04DX003 (ip), vehicle: saline with Tween-80): 100 % of control

COC(=O)CCC(Cl)(Cl)Cl
T/C [9]: 102 % of control | T/C [10]: 102 % of control | T/C [11]: 100 % of control
